Molecular target: T1, P2X7 receptor (Homo sapiens, UniProt Q99572)
T1 construct: host or cells: SH-SY5Y
T1 sequence (Q99572 1-595): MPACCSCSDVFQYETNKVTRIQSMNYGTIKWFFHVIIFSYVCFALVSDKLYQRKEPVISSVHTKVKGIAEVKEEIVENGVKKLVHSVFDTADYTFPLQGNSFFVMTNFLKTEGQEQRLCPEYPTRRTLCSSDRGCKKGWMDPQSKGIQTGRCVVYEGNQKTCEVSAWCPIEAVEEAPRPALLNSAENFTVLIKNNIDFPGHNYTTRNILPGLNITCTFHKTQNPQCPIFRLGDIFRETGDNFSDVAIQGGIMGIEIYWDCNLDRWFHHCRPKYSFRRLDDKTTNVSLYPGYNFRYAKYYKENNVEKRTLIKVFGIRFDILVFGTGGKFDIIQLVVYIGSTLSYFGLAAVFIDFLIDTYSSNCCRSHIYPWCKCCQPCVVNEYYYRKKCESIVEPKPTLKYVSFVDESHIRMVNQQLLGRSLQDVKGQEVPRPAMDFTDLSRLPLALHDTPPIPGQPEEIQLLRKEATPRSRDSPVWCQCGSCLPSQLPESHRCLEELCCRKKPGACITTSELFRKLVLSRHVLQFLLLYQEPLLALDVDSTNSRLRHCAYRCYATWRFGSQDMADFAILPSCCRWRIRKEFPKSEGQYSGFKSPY
Experiment: P2X7 calcium mobilization assay, high throughput, antagonist activity (Example 4A)
Type: cell-based
Settings: 50% decrease in the fluorescence response of cells exposed to 80 μM of 2′(3′)-O-(4-benzoyl-benzoyl)adenosine 5′-triphosphate; determined as in Example 4A; read-out: IC50
In short: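 Antagonism was measured as calcium mobilization on FLIPR^TETRA after a 1 h room-temperature compound preincubation of dye-loaded cells. Baseline from no-agonist wells was subtracted from each well's maximum RFU.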

Row | SMILES | IC50 [nM]
1 | O=C(NCC1(c2ccc(Cl)cc2)CCCCC1)c1cccc2nc(Cn3nnc(CCO)n3)cn12 [Compound 919, N-{[1-(4-chlorophenyl)cyclohexyl]methyl}-2-{[5-(2-hydroxyethyl)-2H-tetrazol-2-yl]methyl}imidazo[1,2-a]pyridine-5-carboxamide] | < 2000
2 | O=C(NCC1(c2ccc(C(F)(F)F)cc2)CCCCC1)c1cccc2nc(Cn3nnc(CCO)n3)cn12 [Compound 920, 2-{[5-(2-hydroxyethyl)-2H-tetrazol-2-yl]methyl}-N-({1-[4-(trifluoromethyl)phenyl]cyclohexyl}methyl)imidazo [1,2-a]pyridine-5-carboxamide] | < 2000
3 | O=C(NCC1(c2cccnc2)CCCCC1)c1cccc2nc(Cn3nnc(CCO)n3)cn12 [Compound 921, 2-{[5-(2-hydroxyethyl)-2H-tetrazol-2-yl]methyl}-N-[(1-pyridin-3-ylcyclohexyl)methyl] imidazo[1,2-a] pyridine-5-carboxamide] | < 2000
4 | Cc1ccc(C2(CNC(=O)c3cccc4nc(Cn5nnc(CCO)n5)cn34)CCCCC2)cn1 [Compound 922, 2-{[5-(2-hydroxyethyl)-2H-tetrazol-2-yl]methyl}-N-{[1-(6-methylpyridin-3-yl)cyclohexyl]methyl} imidazo[1,2-a] pyridine-5-carboxamide] | < 2000
5 | CC1=NCCN1Cc1cn2c(C(=O)NCC(CC(C)C)c3ccc(Cl)cc3)cccc2n1 (stereo not drawn) [Compound 923, N-[2-(4-chlorophenyl)-4-methylpentyl]-2-[(2-methyl-4,5-dihydro-1H-imidazol-1-yl)methyl]imidazo[1,2-a]pyridine-5-carboxamide] | < 2000
6 | CCCC(CNC(=O)c1cccc2nc(CC(=O)N[C@@H]3CCCN(C(=O)OC(C)(C)C)C3)cn12)c1ccc(Cl)cc1 (stereo partly drawn) [Compound 924, tert-butyl (3R)-3-{[(5-{[2-(4-chlorophenyl)pentyl]carbamoyl}imidazo [1,2-a]pyridin-2-yl)acetyl]amino} piperidine-1-carboxylate] | < 2000
7 | CCCC(CNC(=O)c1cccc2nc(CC(=O)N[C@@H]3CCCNC3)cn12)c1ccc(Cl)cc1 (stereo partly drawn) [Compound 925, N-[2-(4-chlorophenyl)pentyl]-2-{2-oxo-2-[(3R)-piperidin-3-ylamino]ethyl} imidazo [1,2-a]pyridine-5-carboxamide] | < 2000
8 | O=C(Cc1cn2c(C(=O)NCC3(c4ccc(Cl)cc4)CCOCC3)cccc2n1)N[C@@H]1CCCNC1 [Compound 926, N-{[4-(4-chlorophenyl)tetrahydro-2H-pyran-4-yl]methyl}-2-{2-oxo-2-[(3R)-piperidin-3-ylamino]ethyl}imidazo [1,2-a]pyridine-5-carboxamide] | < 2000
9 | CC(C)CC(CNC(=O)c1cccc2nc(CC(=O)N3CCC[C@@H](NC(=O)OC(C)(C)C)C3)cn12)c1ccc(Cl)cc1 (stereo partly drawn) [Compound 928, tert-butyl {(3R)-1-[(5-{[2-(4-chlorophenyl)-4-methylpentyl]carbamoyl}imidazo[1,2-a]pyridin-2-yl)acetyl]piperidin-3-yl}carbamate] | < 2000
10 | CCCC(CNC(=O)c1cccc2nc(CC(=O)N3CCC[C@@H](N)C3)cn12)c1ccc(Cl)cc1 (stereo partly drawn) [Compound 929, 2-{2-[(3R)-3-aminopiperidin-1-yl]-2-oxoethyl}-N-[2-(4-chlorophenyl)pentyl] imidazo[1,2-a] pyridine-5-carboxamide] | < 2000
11 | CCOC(=O)C(Cc1ccccn1)c1cn2c(C(=O)NCC(CC(C)C)c3ccc(Cl)cc3)cccc2n1 (stereo not drawn) [Compound 930, ethyl 2-(5-{[2-(4-chlorophenyl)-4-methylpentyl]carbamoyl}imidazo[1,2-a]pyridin-2-yl)-3-pyridin-2-ylpropanoate] | < 2000
12 | CCOC(=O)C(Cc1ccccc1)c1cn2c(C(=O)NCC(CC(C)C)c3ccc(Cl)cc3)cccc2n1 (stereo not drawn) [Compound 931, ethyl 2-(5-{[2-(4-chlorophenyl)-4-methylpentyl]carbamoyl}imidazo[1,2-a]pyridin-2-yl)-3-phenylpropanoate] | < 2000

— patent US8431593B2, “Heteroaryl amide derivatives” (H. Lundbeck A/S, priority 2006, dated 2013)
